{"source": "patent US12427171B2", "about": "“Krill oil composition enriched in LPC-DHA and LPC-EPA” (Aker BioMarine Human Ingredients AS, priority 2020, dated 2025)", "key": {"[1]": {"test": "Rat retinal fatty acid composition after daily gavage of DHA as TAG, PC or LPC for 30 days (GC/MS)", "format": "in vivo", "experimental": "Normal male Sprague-Dawley rats (8-week-old; n=5 per group) were gavaged daily with 10 mg DHA in 250 μL corn oil in the form of TAG-DHA, di-DHA PC, or LPC-DHA for 30 days. […] All animals were on regular rodent chow that contained no DHA, but contained 17.4 mg α-linolenic acid (18:3, n-3) per g of chow. Retinal FA were analyzed by GC/MS as described in the text. The percent composition of 20:4 (n-6), 20:5 (n-3), 22:5 (n-3), and 22:6 (n-3) are shown here. The significance of differences between the treatment groups was determined by a one-way ANOVA, with Tukey multiple post-hoc test (Graphpad Prism 8.0). […] TG: triacylglycerol; PC: phosphatidylcholine; LPC: lysophosphatidylcholine; FA: fatty acid; GC/MS: gas chromatography/mass spectroscopy.\n(§1) Animals and dietary treatments: All studies in animals described here were approved by the Institutional Animal Care and Use Committee of the University of Illinois at Chicago. The retina samples were obtained from our previous studies on the brain accretion of DHA in mice and rats, which were published previously. Male Sprague-Dawley rats (8-week-old) were purchased from Harlan laboratories (Indianapolis, IN, USA). Male C57 BL/J6 mice (2-4-months-old) were purchased from Jackson Laboratories (Bar Harbor. Maine).\n(§2) In the first study, male Sprague-Dawley rats (n=5 per group, 8-week-old) were gavaged daily with 10 mg of DHA (40 mg DHA/kg body weight) in the form of TAG-DHA (DHASCO algal oil, DSM Nutritional Products, Columbia, MD, USA), synthetic di-DHA PC (phosphatidylcholine), or synthetic LPC-DHA (sn-1 acyl) for 30 days. The DHA was distributed equally among the three positions of TAG-DHA [17]. […] In the second study, 4-month-old male C57 BL/J6 mice (n=8 per group) were gavaged daily with 40 mg DHA/kg body weight in the form of free (unesterified) DHA, sn-1 acyl LPC-DHA, or sn-2 acyl LPC-DHA for 30 days as described previously. In the third study, male C57 BL/J6 mice (2-months-old, n=5 per group) were fed diets enriched with natural or lipase-treated fish oil or hill oil for 30 days. The total amount of omega-3 FA (eicosapentaenoic acid (EPA)+DHA) was 2.64 g/kg diet in all the diets. The untreated hill oil contained 18% of total omega-3 FA as LPC, whereas the lipase-treated hill oil contained >80% of the total omega-3 FA as LPC. The fish oil diets contained no LPC-EPA or LPC-DHA. The animals were trans-cardially perfused with ice cold phosphate buffered saline under anesthesia and the retinas were collected and kept frozen at −80° C. until the analysis.\n(§3) Analytical procedures: The total lipids of retina were extracted by Bligh and Dyer procedure and the fatty acids were methylated using methanolic HCl. The fatty acid analysis was carried out by GC/MS (gas chromatography/mass spectroscopy) using Shimadzu QP2010SE equipped with Supelco Omegawax column, as described previously. Total ion current in the range of 50-400 m/z was used for quantification of the methyl esters. For LC/MS/MS (liquid chromatography/tandem mass spectroscopy) analysis, the lipids were extracted by the procedure of Ivanova et al.. The analysis of molecular species of phospholipids was performed on an ABSciex QTRAP mass spectrometer (Redwood City, CA, USA) coupled with Agilent 2600 UPLC system (Santa Clara, CA, USA), by multiple reaction monitoring. The internal standards 17:0 LPC, di 17:0 PC, and di 17:0 PE (phosphatidylethanolamine) were used for the quantification of the corresponding molecular species, without applying any correction factors for the differences in the ion intensity of different molecular species.\nStatistics and correlations: The significance of differences between treatment groups was determined by a one-way ANOVA, with Tukey post-hoc multiple comparison corrections or unpaired t-test between control and treated samples adjusted with Holm-Sidak method (Graphpad Prism 8.0, San Diego, CA, USA). […]"}, "[2]": {"test": "Mouse retinal fatty acid composition after daily gavage of free DHA, sn-1 DHA LPC or sn-2 DHA LPC for 30 days (GC/MS)", "format": "in vivo", "conditions": "1 mg DHA daily by gavage", "experimental": "Normal male mice (C57 BL/J6, 16-week-old) were gavaged daily with 1 mg DHA in the form of free DHA, sn-1 DHA LPC, or sn-2 DHA LPC in 80 μL corn oil for 30 days. Retinal FA composition was analyzed by GC/MS. Only the values for arachidonic acid and the omega-3 FA are shown here (mean±SD, 8 animals/group). […] SD: standard deviation; sn-1 and sn-2: stereospecific numbering 1 and 2 respectively; LPC: lysophosphatidylcholine; DHA: docosahexaenoic acid.\nas §1, §2, §3\nStatistics and correlations: The significance of differences between treatment groups was determined by a one-way ANOVA, with Tukey post-hoc multiple comparison corrections or unpaired t-test between control and treated samples adjusted with Holm-Sidak method (Graphpad Prism 8.0, San Diego, CA, USA)."}}}
{"smiles": "CC/C=C\\C/C=C\\C/C=C\\C/C=C\\C/C=C\\C/C=C\\CCC(=O)OC[C@H](COP(=O)([O-])OCC[N+](C)(C)C)OC(=O)CC/C=C\\C/C=C\\C/C=C\\C/C=C\\C/C=C\\C/C=C\\CC", "note": "[PC-DHA]", "values": [{"measurement": "rat retinal fatty acid composition, 12:0, Mean", "setting": "[1]; 10 mg DHA daily by gavage", "result": "4.57 % of total FA"}, {"measurement": "rat retinal fatty acid composition, 14:0, Mean", "setting": "[1]; 10 mg DHA daily by gavage", "result": "0.97 % of total FA"}, {"measurement": "rat retinal fatty acid composition, 16:0, Mean", "setting": "[1]; 10 mg DHA daily by gavage", "result": "19.06 % of total FA"}, {"measurement": "rat retinal fatty acid composition, 16:0 DMA, Mean", "setting": "[1]; 10 mg DHA daily by gavage", "result": "0.05 % of total FA"}, {"measurement": "rat retinal fatty acid composition, 16:1 (n-7), Mean", "setting": "[1]; 10 mg DHA daily by gavage", "result": "0.65 % of total FA"}, {"measurement": "rat retinal fatty acid composition, 17:1 (n-7), Mean", "setting": "[1]; 10 mg DHA daily by gavage", "result": "0.03 % of total FA"}, {"measurement": "rat retinal fatty acid composition, 18:0, Mean", "setting": "[1]; 10 mg DHA daily by gavage", "result": "17.79 % of total FA"}, {"measurement": "rat retinal fatty acid composition, 18:0 DMA, Mean", "setting": "[1]; 10 mg DHA daily by gavage", "result": "0.03 % of total FA"}, {"measurement": "rat retinal fatty acid composition, 18:1 (n-7), Mean", "setting": "[1]; 10 mg DHA daily by gavage", "result": "3.91 % of total FA"}, {"measurement": "rat retinal fatty acid composition, 18:1 (n-9), Mean", "setting": "[1]; 10 mg DHA daily by gavage", "result": "17.70 % of total FA"}, {"measurement": "rat retinal fatty acid composition, 18:1 DMA, Mean", "setting": "[1]; 10 mg DHA daily by gavage", "result": "0.06 % of total FA"}, {"measurement": "rat retinal fatty acid composition, 18:2 (n-6), Mean", "setting": "[1]; 10 mg DHA daily by gavage", "result": "0.95 % of total FA"}, {"measurement": "rat retinal fatty acid composition, 18:3 (n-3), Mean", "setting": "[1]; 10 mg DHA daily by gavage", "result": "0.07 % of total FA"}, {"measurement": "rat retinal fatty acid composition, 18:3 (n-6), Mean", "setting": "[1]; 10 mg DHA daily by gavage", "result": "0.49 % of total FA"}, {"measurement": "rat retinal fatty acid composition, 20:0, Mean", "setting": "[1]; 10 mg DHA daily by gavage", "result": "0.05 % of total FA"}, {"measurement": "rat retinal fatty acid composition, 20:1 (n-9), Mean", "setting": "[1]; 10 mg DHA daily by gavage", "result": "0.07 % of total FA"}, {"measurement": "rat retinal fatty acid composition, 20:2 (n-6), Mean", "setting": "[1]; 10 mg DHA daily by gavage", "result": "0.06 % of total FA"}, {"measurement": "rat retinal fatty acid composition, 20:3 (n-6), Mean", "setting": "[1]; 10 mg DHA daily by gavage", "result": "0.06 % of total FA"}, {"measurement": "rat retinal fatty acid composition, 20:4 (n-6), Mean", "setting": "[1]; 10 mg DHA daily by gavage", "result": "8.45 % of total FA"}, {"measurement": "rat retinal fatty acid composition, 20:5 (n-3), Mean", "setting": "[1]; 10 mg DHA daily by gavage", "result": "0.06 % of total FA"}, {"measurement": "rat retinal fatty acid composition, 22:0, Mean", "setting": "[1]; 10 mg DHA daily by gavage", "result": "0.07 % of total FA"}, {"measurement": "rat retinal fatty acid composition, 22:2 (n-6), Mean", "setting": "[1]; 10 mg DHA daily by gavage", "result": "0.12 % of total FA"}, {"measurement": "rat retinal fatty acid composition, 22:4 (n-6), Mean", "setting": "[1]; 10 mg DHA daily by gavage", "result": "0.07 % of total FA"}, {"measurement": "rat retinal fatty acid composition, 22:5 (n-3), Mean", "setting": "[1]; 10 mg DHA daily by gavage", "result": "0.06 % of total FA"}, {"measurement": "rat retinal fatty acid composition, 22:5 (n-6), Mean", "setting": "[1]; 10 mg DHA daily by gavage", "result": "0.02 % of total FA"}, {"measurement": "rat retinal fatty acid composition, 22:6 (n-3), Mean", "setting": "[1]; 10 mg DHA daily by gavage", "result": "24.53 % of total FA"}, {"measurement": "rat retinal fatty acid composition, 24:1 (n-9), Mean", "setting": "[1]; 10 mg DHA daily by gavage", "result": "0.05 % of total FA"}, {"measurement": "change of the percentage of DHA in retina versus control", "setting": "[1]; rats, 10 mg DHA/day (40 mg DHA/kg)", "result": "+45%"}]}
{"smiles": "CC/C=C\\C/C=C\\C/C=C\\C/C=C\\C/C=C\\C/C=C\\CCC(=O)OC[C@@H](O)COP(=O)([O-])OCC[N+](C)(C)C", "note": "[sn-1 DHA LPC]", "values": [{"measurement": "fatty acid composition of mouse retina, 12:0, Mean ± S.D.", "setting": "[2]", "result": "0.73 ± 0.47"}, {"measurement": "fatty acid composition of mouse retina, 14:0, Mean ± S.D.", "setting": "[2]", "result": "0.30 ± 0.17"}, {"measurement": "fatty acid composition of mouse retina, 16:0, Mean ± S.D.", "setting": "[2]", "result": "14.62 ± 1.22"}, {"measurement": "fatty acid composition of mouse retina, 16:0 DMA, Mean ± S.D.", "setting": "[2]", "result": "1.02 ± 0.32"}, {"measurement": "fatty acid composition of mouse retina, 16:1 (n-7), Mean ± S.D.", "setting": "[2]", "result": "0.47 ± 0.34"}, {"measurement": "fatty acid composition of mouse retina, 17:1 (n-7), Mean ± S.D.", "setting": "[2]", "result": "0.48 ± 0.38"}, {"measurement": "fatty acid composition of mouse retina, 18:0, Mean ± S.D.", "setting": "[2]", "result": "15.44 ± 1.50"}, {"measurement": "fatty acid composition of mouse retina, 18:0 DMA, Mean ± S.D.", "setting": "[2]", "result": "1.96 ± 0.30"}, {"measurement": "fatty acid composition of mouse retina, 18:1(n-7), Mean ± S.D.", "setting": "[2]", "result": "3.82 ± 0.62"}, {"measurement": "fatty acid composition of mouse retina, 18:1 (n-9), Mean ± S.D.", "setting": "[2]", "result": "15.56 ± 1.16"}, {"measurement": "fatty acid composition of mouse retina, 18:1 DMA, Mean ± S.D.", "setting": "[2]", "result": "0.78 ± 0.64"}, {"measurement": "fatty acid composition of mouse retina, 18:2 (n-6), Mean ± S.D.", "setting": "[2]", "result": "1.38 ± 0.49"}, {"measurement": "fatty acid composition of mouse retina, 18:3 (n-3), Mean ± S.D.", "setting": "[2]", "result": "0.51 ± 0.42"}, {"measurement": "fatty acid composition of mouse retina, 18:3 (n-6), Mean ± S.D.", "setting": "[2]", "result": "0.60 ± 0.47"}, {"measurement": "fatty acid composition of mouse retina, 20:0, Mean ± S.D.", "setting": "[2]", "result": "1.18 ± 0.72"}, {"measurement": "fatty acid composition of mouse retina, 20:1 (n-9), Mean ± S.D.", "setting": "[2]", "result": "2.87 ± 0.60"}, {"measurement": "fatty acid composition of mouse retina, 20:2 (n-6), Mean ± S.D.", "setting": "[2]", "result": "0.88 ± 0.95"}, {"measurement": "fatty acid composition of mouse retina, 20:3 (n-6), Mean ± S.D.", "setting": "[2]", "result": "1.44 ± 0.35"}, {"measurement": "fatty acid composition of mouse retina, 20:4 (n-6), Mean ± S.D.", "setting": "[2]", "result": "5.75 ± 0.71"}, {"measurement": "fatty acid composition of mouse retina, 20:5 (n-3), Mean ± S.D.", "setting": "[2]", "result": "1.91 ± 1.40"}, {"measurement": "fatty acid composition of mouse retina, 22:0, Mean ± S.D.", "setting": "[2]", "result": "1.24 ± 0.95"}, {"measurement": "fatty acid composition of mouse retina, 22:2 (n-6), Mean ± S.D.", "setting": "[2]", "result": "1.00 ± 0.76"}, {"measurement": "fatty acid composition of mouse retina, 22:4 (n-6), Mean ± S.D.", "setting": "[2]", "result": "2.23 ± 0.87"}, {"measurement": "fatty acid composition of mouse retina, 22:5 (n-3), Mean ± S.D.", "setting": "[2]", "result": "0.79 ± 0.76"}, {"measurement": "fatty acid composition of mouse retina, 22:6 (n-3), Mean ± S.D.", "setting": "[2]", "result": "22.57 ± 3.12"}, {"measurement": "fatty acid composition of mouse retina, 24:1 (n-9), Mean ± S.D.", "setting": "[2]", "result": "0.49 ± 0.17"}]}
